Measured values taken from BindingDB's records for doi:10.1124/jpet.103.054775 (Cornell University, 2003).
Values joined by “and” are separate entries in the source; they are usually repeats but may differ in a detail not shown here. Identical values can stand only once. Non-standard residues stand in square brackets, D forms with d. Residues, ends and D or L forms follow the SMILES beside them. Dmt = Cc1cc(O)cc(C)c1C[C@H](N)C(=O)O

target: Mu-type opioid receptor (Mus musculus, UniProt P42866)
Sequence (P42866 whole entry): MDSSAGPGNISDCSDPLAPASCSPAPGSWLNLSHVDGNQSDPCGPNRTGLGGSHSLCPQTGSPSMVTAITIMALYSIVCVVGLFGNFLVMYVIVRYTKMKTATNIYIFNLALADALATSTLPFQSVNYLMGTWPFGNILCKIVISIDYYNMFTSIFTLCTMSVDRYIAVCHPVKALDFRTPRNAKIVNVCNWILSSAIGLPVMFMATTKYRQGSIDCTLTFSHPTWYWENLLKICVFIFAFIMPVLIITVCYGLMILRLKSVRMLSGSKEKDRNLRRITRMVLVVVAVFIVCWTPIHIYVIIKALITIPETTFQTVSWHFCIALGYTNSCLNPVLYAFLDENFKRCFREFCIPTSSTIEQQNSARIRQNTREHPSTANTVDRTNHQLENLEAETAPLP

SMILES	Ki
Cc1cc(O)cc(C)c1C[C@H](N)C(=O)N[C@H](CCCN=C(N)N)C(=O)N[C@@H](Cc1ccccc1)C(=O)N[C@@H](CCCN)C(N)=O [Dmt-d-Arg-Phe-Orn-NH2]	0.151 nM and 0.161 nM
Cc1cc(O)cc(C)c1C[C@H](N)C(=O)N[C@H](C)C(=O)N[C@@H](Cc1ccccc1)C(=O)N[C@@H](Cc1ccccc1)C(N)=O [Dmt-d-Ala-Phe-Phe-NH2] (H-[Dmt][dA]FF-NH2)	0.173 nM and 0.174 nM
Cc1cc(O)cc(C)c1C[C@H](N)C(=O)N[C@H](CCCN=C(N)N)C(=O)N[C@@H](Cc1ccccc1)C(=O)N[C@@H](CN)C(N)=O [Dmt-d-Arg-Phe-A2pr-NH2]	0.0636 nM and 0.145 nM
NCCC[C@H](NC(=O)[C@H](Cc1ccccc1)NC(=O)[C@@H](CCCN=C(N)N)NC(=O)[C@@H](N)Cc1ccc(O)cc1)C(N)=O [5-amino-2-{1-[1-[1-amino-2-(4-hydroxyphenyl)ethylcarboxamido]-4-amino(imino)methylamino-(1R)-butylcarboxamido]-2-phenylethylcarboxamido}pentanamide]	1.2 nM and 10.4 nM
C[C@@H](NC(=O)[C@@H](N)Cc1ccc(O)cc1)C(=O)N[C@@H](Cc1ccccc1)C(=O)N[C@@H](Cc1ccccc1)C(N)=O (H-Y[dA]FF-NH2)	1.53 nM and 3.44 nM
NCCCC[C@H](NC(=O)[C@H](Cc1ccccc1)NC(=O)[C@@H](CCCN=C(N)N)NC(=O)[C@@H](N)Cc1ccc(O)cc1)C(N)=O [NSC_122222]	1.69 nM and 12.9 nM
NC[C@H](NC(=O)[C@H](Cc1ccccc1)NC(=O)[C@@H](CCCN=C(N)N)NC(=O)[C@@H](N)Cc1ccc(O)cc1)C(N)=O [Tyr-d-Arg-Phe-A2pr-NH2]	2.55 nM and 12.7 nM
